The conditions of data set [1]: 101.33 kPa, Buoyancy - hydrostatic balance.
Data set [2] in a line: refractive index (Na D-line) (dimensionless). Conditions: 101.33 kPa, Liquid, Standard Abbe refractometry.

± gives the expanded uncertainty stated by the source.

In general, mass density refers to the mass of a sample divided by its volume. The term refractive index denotes the speed of light in vacuum divided by its phase velocity in the sample.

`CCCOC(C)=O` [propyl ethanoate]: in data set [1] (293.2 K, Liquid), the mass density was 889 ± 2 kg/m3. Further, the refractive index in data set [2] (293.2 K) is listed as 1.3842 ± 0.0005.
Turning to `CCCCCCCCO` [octan-1-ol], the mass density in data set [1] (293.2 K, Liquid) stood at 823.6 ± 0.3 kg/m3. Also, the refractive index in data set [2] (293.2 K) was 1.4288 ± 0.0005.
On to `Oc1ccc(O)cc1` [1,4-benzenediol], for which the mass density in data set [1] (293.2 K, Crystal) turned out to be 1332 ± 3 kg/m3.
For the compound `CCCCC(C)=O` [2-hexanone], in data set [1] (293.2 K, Liquid), the mass density was 811 ± 2 kg/m3. Moreover, in data set [2] (293.2 K), the refractive index was found to be 1.40065 ± 0.00054.
For the compound `Oc1ccccc1` [phenol], in data set [1] (314.5 K, Liquid), the mass density was 1058.1 ± 0.3 kg/m3. For the same compound, the refractive index in data set [2] (314.5 K) amounted to 1.54182 ± 0.00051.
